Data taken from patent publication US20240174618A1, “SUBSTITUTED (2-HETEROARYLOXYPHENYL)SULFONATES, SALTS THEREOF AND THEIR USE AS HERBICIDAL AGENTS” (Bayer Aktiengesellschaft, priority 2021, published 2024).

Experiments:
Type in all cases: in vivo
Stellaria media (STEME) = experiment: B. Herbicidal post-emergence efficacy, STEME
Summary of the method: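 Weeds grown in sandy loam in greenhouse pots, sprayed at one-leaf stage (2–3 weeks after sowing) with WP or EC formulations as aqueous suspension/emulsion plus 0.5% additive at 600 L/ha water, rates up to 1280 g/ha. Visual efficacy rated about 3 weeks later versus untreated controls (0% = like control, 100% = dead).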

[1] = test system: Pharbitis purpurea (PHBPU); experiment: C. Herbicidal pre-emergence efficacy, PHBPU; details: 320 g/ha, scored after about 3 weeks
Excerpt: Seeds of monocotyledonous and dicotyledonous weed plants and crop plants were placed in plastic or organic planting pots and covered with soil. The compounds of the invention, formulated in the form of wettable powders (WP) or as emulsion concentrates (EC), were then applied to the surface of the covering soil as aqueous suspension or emulsion with addition of 0.5% additive at a water application rate equivalent to 600 l/ha (converted). After the treatment, the pots were placed in a greenhouse and kept under good growth conditions for the test plants. After about 3 weeks, the efficacy of the preparations was scored visually in comparison with untreated controls as percentages. For example, • 100% efficacy=plants have died, • 0% efficacy=like untreated control plants.
Tables C1a to C14b below show the effects of selected compounds of the general formula (I) according to table 1 on various harmful plants at an application rate corresponding to 320 g/ha or less, which were obtained by the experimental procedure mentioned above.

Kochia scoparia (KCHSC) = experiment: C. Herbicidal pre-emergence efficacy, KCHSC
Summary of the method: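 Pre-emergence test: formulated compounds sprayed as aqueous suspension or emulsion with 0.5% additive at 600 l/ha onto soil covering sown seeds, at rates corresponding to 320 g/ha or less. After about 3 weeks in greenhouse, efficacy scored visually as percent versus untreated controls (100% = plants dead).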

Zea mays (ZEAMX) [2] = experiment: D. Pre-emergence effect on useful plants, ZEAMX; details: useful plant
Summary of the method: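 Seeds sown in pots and covered with soil; WP or EC formulations sprayed on the soil surface as aqueous suspension/emulsion with 0.5% additive at 600 l/ha water. Plants grown in greenhouse; crop damage scored visually after about 3 weeks as % versus untreated controls (100% = dead, 0% = like control).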

[3] = test system: Amaranthus retroflexus (AMARE); experiment: E. Herbicidal post-emergence efficacy, AMARE
Summary of the method: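 Greenhouse post-emergence spray, one-leaf stage (2–3 wk after sowing, sandy loam); WP/EC formulation, aqueous + 0.5% additive, 600 l/ha water; rates 320 g/ha or less. Visual rating ~3 wk later vs untreated; 0% = control-like, 100% = dead.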

[4] = test system: Digitaria sanguinalis (DIGSA); experiment: E. Herbicidal post-emergence efficacy, DIGSA
Description: (§1) Seeds of monocotyledonous and dicotyledonous weeds and crop plants were placed in sandy loam in plastic or organic planting pots, covered with soil and cultivated in a greenhouse under controlled growth conditions. 2 to 3 weeks after sowing, the test plants were treated at the one-leaf stage. The compounds of the invention, formulated in the form of wettable powders (WP) or as emulsion concentrates (EC), were then sprayed onto the green parts of the plants as aqueous suspension or emulsion with addition of 0.5% additive at a water application rate of 600 l/ha (converted). After the test plants had been kept in the greenhouse under optimum growth conditions for about 3 weeks, the activity of the preparations was rated visually in comparison to untreated controls.
(§2) For example, • 100% efficacy=plants have died, • 0% action=like untreated control plants.
(§3) Tables E1a to E12b below show the effects of selected compounds of the general formula (I) according to table 1 on various harmful plants at an application rate corresponding to 320 g/ha or less, which were obtained by the experimental procedure mentioned above.

Zea mays (ZEAMX) [5] = experiment: F. Post-emergence effect on useful plants, ZEAMX; details: useful plant
Summary of the method: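 Crop plants grown in sandy loam in the greenhouse were sprayed at the one-leaf stage, 2-3 weeks after sowing, with WP or EC formulations plus 0.5% additive at 600 l/ha water. Damage was scored visually after about 3 weeks against untreated controls (0% = like control, 100% = dead).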

[6] = test system: Alopecurus myosuroides (ALOMY); experiment: E. Herbicidal post-emergence efficacy, ALOMY; details: application rate 320 g/ha
Description: as §1, §2, §3

| Compound | Post-emergence efficacy against STEME (Stellaria media (STEME); 80 g/ha) [%] | Post-emergence efficacy against STEME (Stellaria media (STEME); 320 g/ha) [%] | Post-emergence efficacy against STEME (Stellaria media (STEME); 1280 g/ha) [%] | Pre-emergence efficacy against PHBPU [1] [%] | Pre-emergence efficacy against KCHSC in % (Kochia scoparia (KCHSC); application rate 80 g/ha) [%] | Pre-emergence efficacy against KCHSC in % (Kochia scoparia (KCHSC); application rate 320 g/ha) [%] | Pre-emergence efficacy against ZEAMX in % (Zea mays (ZEAMX) [2]; application rate 80 g/ha) [%] | Post-emergence efficacy against AMARE in % ([3]; application rate 80 g/ha) [%] | Post-emergence efficacy against AMARE in % ([3]; application rate 320 g/ha) [%] | Post-emergence efficacy against DIGSA in % ([4]; application rate 80 g/ha) [%] | Post-emergence efficacy against DIGSA in % ([4]; application rate 320 g/ha) [%] | Post-emergence efficacy against ZEAMX in % (Zea mays (ZEAMX) [5]; application rate 80 g/ha) [%] | Post-emergence efficacy against ZEAMX in % (Zea mays (ZEAMX) [5]; application rate 320 g/ha) [%] | Pre-emergence efficacy against ZEAMX in % (Zea mays (ZEAMX) [2]; application rate 320 g/ha) [%] | Post-emergence efficacy against ALOMY in % [6] [%] |
| --- | --- | --- | --- | --- | --- | --- | --- | --- | --- | --- | --- | --- | --- | --- | --- |
| O=S(=O)(CCCC(F)(F)F)Oc1c(Cl)cccc1Oc1ncc(Cl)cn1 [Example I-39] | 90 | 90 | 90 | 90 | 100 | 100 | 0 | 100 | 100 | 90 | 100 | 20 | – | – | – |
| O=S(=O)(CCC(F)(F)F)Oc1c(Br)cccc1Oc1ncc(F)cn1 [Example I-43] | – | 100 | 100 | – | 100 | 100 | 0 | 100 | 100 | – | – | 0 | 0 | – | – |
| Cc1cccc(Oc2ncc(F)cn2)c1OS(=O)(=O)CCC(F)(F)F [Example I-45] | 100 | 100 | 100 | – | 90 | 100 | 0 | – | 80 | – | – | – | – | 20 | – |
| Cc1cccc(Oc2ncc(F)cn2)c1OS(=O)(=O)CCCC(F)(F)F [Example I-46] | 90 | 100 | 100 | – | – | 100 | 0 | – | 90 | – | – | – | – | – | – |
| C=CCCS(=O)(=O)Oc1c(F)cccc1Oc1ncc(Cl)cn1 [Example I-50] | – | – | – | – | 90 | 100 | 0 | 100 | 100 | – | – | – | – | – | – |
| O=S(=O)(CCC1CC1)Oc1c(F)cccc1Oc1ncc(Cl)cn1 [Example I-55] | 90 | 90 | 90 | – | 80 | 100 | 10 | 90 | 100 | – | 90 | – | – | – | – |
| O=S(=O)(CCCC(F)(F)C(F)(F)F)Oc1c(F)cccc1Oc1ncc(Cl)cn1 [Example I-68] | 90 | 100 | 100 | – | 100 | 100 | 10 | 90 | 100 | – | 90 | – | – | – | – |
| O=S(=O)(CCC(F)=C(F)F)Oc1c(F)cccc1Oc1ncc(Cl)cn1 [Example I-70] | – | – | – | – | 100 | 100 | – | 100 | 100 | – | 90 | 20 | – | – | – |
| N#Cc1cccc(Oc2ncc(Cl)cn2)c1OS(=O)(=O)CCCC(F)(F)F [Example I-81] | – | – | – | 100 | 100 | 100 | 0 | 100 | 100 | 80 | 90 | – | – | – | 90 |
